Assay results reported in patent US20140315889A1, “HYDROXAMATE DERIVATIVES FOR HDAC INHIBITOR, AND THE PHARMACEUTICAL COMPOSITION COMPRISING THEREOF” (CHONG KUN DANG PHARMACEUTICAL CORP., priority 2011, published 2014).

What was measured:
human recombinant HDAC6 = molecular target: T1, human recombinant HDAC6 (Homo sapiens, UniProt Q9UBN7); assay: HDAC enzyme activity test, HDAC6; type: biochemical; settings: Table 12; for Selectivity for HDAC6, HD1/HD6: ratio HDAC1 IC50 / HDAC6 IC50; for IC50: read-out: Inhibition ability (IC50) HDAC6
T1 construct: purchased Calibiochem Co. (so in the source) 382180
T1 sequence (Q9UBN7 1-1215): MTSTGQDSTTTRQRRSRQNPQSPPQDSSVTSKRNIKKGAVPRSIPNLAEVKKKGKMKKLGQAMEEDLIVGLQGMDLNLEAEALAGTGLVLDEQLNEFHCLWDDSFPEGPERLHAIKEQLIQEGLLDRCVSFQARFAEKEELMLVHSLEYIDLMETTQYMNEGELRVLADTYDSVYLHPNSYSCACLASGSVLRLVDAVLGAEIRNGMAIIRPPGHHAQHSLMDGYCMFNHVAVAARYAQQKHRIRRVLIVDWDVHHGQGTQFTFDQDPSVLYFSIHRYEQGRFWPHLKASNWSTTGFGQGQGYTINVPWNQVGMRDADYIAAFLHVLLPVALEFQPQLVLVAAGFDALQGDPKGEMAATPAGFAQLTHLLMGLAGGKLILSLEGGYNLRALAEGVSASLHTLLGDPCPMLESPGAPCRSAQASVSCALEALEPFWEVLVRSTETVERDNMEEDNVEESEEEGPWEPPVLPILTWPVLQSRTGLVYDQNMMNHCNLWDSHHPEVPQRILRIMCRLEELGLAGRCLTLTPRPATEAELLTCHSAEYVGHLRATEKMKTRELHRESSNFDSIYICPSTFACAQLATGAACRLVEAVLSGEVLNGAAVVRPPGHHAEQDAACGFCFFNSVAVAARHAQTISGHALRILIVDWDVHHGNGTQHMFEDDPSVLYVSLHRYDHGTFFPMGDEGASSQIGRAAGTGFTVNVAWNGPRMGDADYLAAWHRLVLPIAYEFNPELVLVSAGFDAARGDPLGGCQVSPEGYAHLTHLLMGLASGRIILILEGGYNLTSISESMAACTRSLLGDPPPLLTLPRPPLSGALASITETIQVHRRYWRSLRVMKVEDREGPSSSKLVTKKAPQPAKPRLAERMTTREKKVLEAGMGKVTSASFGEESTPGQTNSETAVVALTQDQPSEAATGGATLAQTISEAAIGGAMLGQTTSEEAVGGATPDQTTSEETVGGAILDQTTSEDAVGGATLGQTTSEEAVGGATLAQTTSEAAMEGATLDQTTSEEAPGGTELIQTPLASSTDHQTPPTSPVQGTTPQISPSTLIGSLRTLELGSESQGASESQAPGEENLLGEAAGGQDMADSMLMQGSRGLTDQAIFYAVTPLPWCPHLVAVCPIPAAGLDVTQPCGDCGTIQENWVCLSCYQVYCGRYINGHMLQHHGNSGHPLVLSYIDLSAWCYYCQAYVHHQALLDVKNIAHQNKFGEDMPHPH
Description: (§1) Then, 0.3 μg of enzyme and 10 μM of substrate per well were added, reacted at 30° C. for 60 minutes. Thereto, Fluor de Lys® Developer II (BML-KI176) was added and reacted for 30 minutes. […] From the data, the respective IC50 were calculated by GraphPad Prism 4.0 program.

Human recombinant HDAC1 = molecular target: T2, Human recombinant HDAC1 (Homo sapiens, UniProt Q13547); assay: HDAC enzyme activity test, HDAC1; type: biochemical; settings: Table 12; read-out: Inhibition ability (IC50) HDAC1
T2 construct: purchased Enzo Life Science Co. (named for the kit; assigned to the enzyme from the BML- catalogue prefix) BML-SE456
T2 sequence (Q13547 whole entry): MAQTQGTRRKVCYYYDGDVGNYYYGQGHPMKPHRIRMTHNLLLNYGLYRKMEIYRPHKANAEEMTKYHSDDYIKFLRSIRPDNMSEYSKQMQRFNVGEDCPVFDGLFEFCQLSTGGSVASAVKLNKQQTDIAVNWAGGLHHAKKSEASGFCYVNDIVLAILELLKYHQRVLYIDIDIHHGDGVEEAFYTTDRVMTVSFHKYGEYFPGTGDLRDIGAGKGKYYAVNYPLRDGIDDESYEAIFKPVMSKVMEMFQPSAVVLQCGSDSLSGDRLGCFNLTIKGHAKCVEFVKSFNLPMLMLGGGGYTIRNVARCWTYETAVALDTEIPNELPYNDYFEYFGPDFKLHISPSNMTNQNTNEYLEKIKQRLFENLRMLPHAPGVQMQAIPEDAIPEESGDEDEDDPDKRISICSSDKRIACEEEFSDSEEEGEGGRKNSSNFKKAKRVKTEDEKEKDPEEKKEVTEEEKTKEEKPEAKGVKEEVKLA
Description: as §1

| Compound | Selectivity for HDAC6, HD1/HD6 (human recombinant HDAC6) | IC50 (human recombinant HDAC6) [nM] | IC50 (Human recombinant HDAC1) [nM] |
| --- | --- | --- | --- |
| CC1(C)CC(=O)c2c(n(CCCCCC(=O)NO)c3cc(F)c(F)cc23)C1 [Compound 72, 6-(6,7-difluoro-2,2-dimethyl-4-oxo-1,2,3,4-tetrahydrocarbazol-9-yl)-N-hydroxyhexanamide] | 28.2 | 215 | 6060 |
| CC1(C)CC(=O)c2c(n(Cc3ccc(C(=O)NO)cc3)c3cc(F)c(F)cc23)C1 [Compound 71, 4-((6,7-difluoro-2,2-dimethyl-4-oxo-1,2,3,4-tetrahydrocarbazol-9-yl)methyl)-N-hydroxybenzamide] | 37 | 134 | 4990 |
| CCN1CCN(CC2CCc3c(c4ccccc4n3Cc3ccc(C(=O)NO)cc3)C2=O)CC1 (stereo not drawn) [Compound 112, 4-((3-((4-ethylpiperazin-1-yl)methyl)-4-oxo-1,2,3,4-tetrahydrocarbazol-9-yl)methyl)-N-hydroxy benzamide] | 310.6 | 14.9 | 4620 |
| CC(C)(C)OC(=O)N1CCN(CC2CCc3c(c4cc(F)ccc4n3CCCCCC(=O)NO)C2=O)CC1 (stereo not drawn) [Compound 324, tert-butyl 4-((6-fluoro-9-(6-(hydroxyamino)-6-oxohexyl)-4-oxo-2,3,4,9-tetrahydro-1H-carbazol-3-yl)methyl)piperazine-1-carboxylate] | 113.2 | 103 | 11600 |
| CCCCN1CCN(CC2CCc3c(c4ccccc4n3CCCCCC(=O)NO)C2=O)CC1 (stereo not drawn) [Compound 208, 6-(3-((4-butylpiperazin-1-yl)methyl)-4-oxo-1,2,3,4-tetrahydrocarbazol-9-yl)-N-hydroxyhexanamide] | 152.8 | 1.9 | 284 |
| CN1CCN(CC2CCc3c(c4ccccc4n3Cc3ccc(C(=O)NO)cc3)C2=O)CC1 (stereo not drawn) [Compound 111, N-hydroxy-4-((3-((4-methylpiperazin-1-yl)methyl)-4-oxo-1,2,3,4-tetrahydrocarbazol-9-yl)methyl)benzamide] | 338.2 | 12.2 | 4140 |
| CC1CN(CC2CCc3c(c4cc(F)ccc4n3CCCCCC(=O)NO)C2=O)CC(C)O1 (stereo not drawn) [Compound 323, 6-(3-((2,6-dimethylmorpholino)methyl)-6-fluoro-4-oxo-1,2,3,4-tetrahydrocarbazol-9-yl)-N-hydroxyhexanamide] | 102.2 | 87.8 | 8970 |
| CS(=O)(=O)N1CCN(CC2CCc3c(c4ccccc4n3Cc3ccc(C(=O)NO)cc3)C2=O)CC1 (stereo not drawn) [Compound 130, N-hydroxy-4-((3-((4-(methylsulfonyl)piperazin-1-yl)methyl)-4-oxo-1,2,3,4-tetrahydrocarbazol-9-yl)methyl)benzamide] | 564.9 | 4.7 | 2640 |
| CC1(C)CC(=O)c2c(n(Cc3ccc(C(=O)NO)cc3)c3c(Cl)ccc(Cl)c23)C1 [Compound 49, 4-((1,4-dichloro-7,7-dimethyl-5-oxo-5,6,7,8-tetrahydrocarbazol-9-yl)methyl)-N-hydroxybenzamide] | 144.8 | 93 | 13500 |
| CC1(C)CC(=O)c2c(n(CCCCCC(=O)NO)c3c(Cl)ccc(Cl)c23)C1 [Compound 48, 6-(1,4-dichloro-7,7-dimethyl-5-oxo-5,6,7,8-tetrahydrocarbazol-9-yl)-N-hydroxyhexanamide] | 30.1 | 145 | 4370 |
| O=C(NO)c1ccc(Cn2c3c(c4cc(F)ccc42)C(=O)NCC3)cc1 [Compound 306, 4-((8-fluoro-1-oxo-1,2,3,4-tetrahydropyrido[4,3-b]indol-5-yl)methyl)-N-hydroxybenzamide] | 1041.9 | 3.1 | 3230 |
| COCCN1CCN(CC2CCc3c(c4ccccc4n3Cc3ccc(C(=O)NO)cc3)C2=O)CC1 (stereo not drawn) [Compound 114] | 327.1 | 17.7 | 5790 |
| CN(C)CC1C(=O)c2c(n(Cc3ccc(C(=O)NO)cc3)c3ccccc23)CC1(C)C (stereo not drawn) [Compound 129, 4-((3-((dimethylamino)methyl)-2,2-dimethyl-4-oxo-1,2,3,4-tetrahydrocarbazol-9-yl)methyl)-N-hydroxybenzamide] | 642.7 | 6.61 | 4250 |
| CC1(C)CC(=O)c2c(n(CCCCCC(=O)NO)c3cc(F)ccc23)C1 [Compound 76, 6-(7-fluoro-2,2-dimethyl-4-oxo-1,2,3,4-tetrahydrocarbazol-9-yl)-N-hydroxyhexanamide] | 30.7 | 171 | 5230 |
| Cc1c2c(n(Cc3ccc(C(=O)NO)cc3)c1C)CC(C)(C)CC2=O [Compound 236, N-hydroxy-4-((2,3,6,6-tetramethyl-4-oxo-4,5,6,7-tetrahydro-1H-indol-1-yl)methyl)benzamide] | 479.4 | 10.7 | 5110 |
| CN1CCN(CCN2CCc3c(c4ccccc4n3Cc3ccc(C(=O)NO)cc3)C2=O)CC1 [Compound 251, N-hydroxy-4-((2-(2-(4-methylpiperazin-1-yl)ethyl)-1-oxo-1,2,3,4-tetrahydropyrido[4,3-b]indol-5-yl)methyl)benzamide] | 820.3 | 1.77 | 1450 |
| O=C(NO)c1ccc(Cn2c3c(c4ccccc42)C(=O)CCC3)cc1 [Compound 99, N-hydroxy-4-((4-oxo-1,2,3,4-tetrahydrocarbazol-9-yl)methyl)benzamide] | 163.9 | 16.4 | 2680 |
| Cc1c2c(n(CCCCCC(=O)NO)c1C)CCCC2=O [Compound 235, 6-(2,3-dimethyl-4-oxo-4,5,6,7-tetrahydroindol-1-yl)-N-hydroxyhexanamide] | 34.9 | 37.5 | 1310 |
| Cc1nccn1CC1C(=O)c2c(n(Cc3ccc(C(=O)NO)cc3)c3ccc(F)cc23)CC1(C)C (stereo not drawn) [Compound 192, 4-((6-fluoro-2,2-dimethyl-3-((2-methyl-1H-imidazol-1-yl)methyl)-4-oxo-1,2,3,4-tetrahydrocarbazol-9-yl)methyl)-N-hydroxybenzamide] | 2546.4 | 1.8 | 4610 |
| O=C(NO)c1ccc(Cn2c3c(c4ccccc42)C(=O)N(CCN2CCC[C@H]2CO)CC3)cc1 [Compound 267, (S)—N-hydroxy-4-((2-(2-(2-(hydroxymethyl)pyrrolidin-1-yl)ethyl)-1-oxo-1,2,3,4-tetrahydropyrido[4,3-b]indol-5-yl)methyl)benzamide] | 678.8 | 3.35 | 2270 |
| O=C(NO)c1ccc(Cn2c3c(c4ccccc42)C(=O)NCC3)cc1 [Compound 228, N-hydroxy-4-((1-oxo-1,2,3,4-tetrahydropyrido[4,3-b]indol-5-yl)methyl)benzamide] | 208.3 | 16.9 | 3530 |
| CCCCN1CCN(CC2CCc3c(c4cc(F)ccc4n3CCCCCC(=O)NO)C2=O)CC1 (stereo not drawn) [Compound 326, 6-(3-((4-butylpiperazin-1-yl)methyl)-6-fluoro-4-oxo-1,2,3,4-tetrahydrocarbazol-9-yl)-N-hydroxyhexanamide] | 103.3 | 97.6 | 10100 |
